The structures appear in SMILES notation.

In US20250340551A1, “SMALL MOLECULE MODULATORS OF STAT6” (Gilead Sciences, Inc., priority 2024, published 2025) one finds Kd data, which are given here for 26 molecules.

human STAT6, sequence (P42226 122-658): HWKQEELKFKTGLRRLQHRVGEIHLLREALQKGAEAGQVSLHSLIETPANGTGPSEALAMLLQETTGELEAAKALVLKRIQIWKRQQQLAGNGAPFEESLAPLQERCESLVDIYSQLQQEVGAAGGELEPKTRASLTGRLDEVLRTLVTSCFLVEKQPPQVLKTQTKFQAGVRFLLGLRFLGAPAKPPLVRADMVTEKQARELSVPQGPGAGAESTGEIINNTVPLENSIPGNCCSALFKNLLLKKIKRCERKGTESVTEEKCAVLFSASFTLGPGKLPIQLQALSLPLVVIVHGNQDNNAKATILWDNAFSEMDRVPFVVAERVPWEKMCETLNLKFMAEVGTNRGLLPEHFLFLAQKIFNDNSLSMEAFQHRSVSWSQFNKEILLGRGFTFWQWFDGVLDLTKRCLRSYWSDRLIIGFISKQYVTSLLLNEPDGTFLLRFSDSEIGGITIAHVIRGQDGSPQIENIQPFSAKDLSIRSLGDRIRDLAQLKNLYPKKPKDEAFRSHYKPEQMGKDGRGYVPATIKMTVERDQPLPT

This experiment concerns the target human STAT6 (Homo sapiens (Human), UniProt P42226). In words: Surface plasmon resonance assay (Biacore 8K, binding to immobilized STAT6). The conditions noted are these: human STAT6 aa122-658, N-terminal His-tag, CM5 chip, 25° C.; geometric mean; read-out: STAT6 SPR Kd. An outline of the steps: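 Run at 25° C with His-tagged STAT6 aa122-658 (insect-cell expressed) amine-coupled to a CM5 chip, reference-subtracted, in PBS-P+ with 2% DMSO. Multi-cycle kinetics: 60 sec. contact, up to 300 sec. dissociation. Affinity fitted from late report-point binding isotherms, with Rmax both free and fixed to theoretical 1:1.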
With `COc1nc(-c2ccnc3c2cc(CN2CCC(c4ccc(C(=O)N(C)C)cc4)CC2)n3C)ccc1N` [Example 1ad2, 4-(1-((4-(5-Amino-6-methoxypyridin-2-yl)-1-methyl-1H-pyrrolo[2,3-b]pyridin-2-yl)methyl)piperidin-4-yl)-N,N-dimethylbenzamide], the Kd was found to be 54 nM.
With `CN(C)C(=O)c1ccc(C2CCN(Cc3cc4c(-c5cnc(N)cc5F)ccnc4n3C)CC2)cc1` [Example 1k15, 4-[1-[[4-(6-Amino-4-fluoro-3-pyridyl)-1-methyl-pyrrolo[2,3-b]pyridin-2-yl]methyl]-4-piperidyl]-N,N-dimethyl-benzamide], the Kd worked out at 38.9 nM.
Turning to `CN(C)C(=O)c1ccc(C2CCN(Cc3cc4c(-c5ccc(NCCO)nc5)ccnc4n3C)CC2)cc1` [Example 1k61, 4-[1-[[4-[6-(2-Hydroxyethylamino)-3-pyridyl]-1-methyl-pyrrolo[2,3-b]pyridin-2-yl]methyl]-4-piperidyl]-N,N-dimethyl-benzamide], the Kd worked out at 16.5 nM.
The value for `CN(C)C(=O)c1ccc(C2CCN(Cc3cc4c(-c5cnc(N)cc5C#N)ccnc4n3C)CC2)cc1` [Example 1k53, 4-[1-[[4-(6-Amino-4-cyano-3-pyridyl)-1-methyl-pyrrolo[2,3-b]pyridin-2-yl]methyl]-4-piperidyl]-N,N-dimethyl-benzamide] was 962 nM.
On to `CN(C)C(=O)c1ccc(N2CCN(Cc3cc4c(-c5ccc(N)nc5)ccnc4n3C)C(=O)C2)cc1` [Example 1ae7, 4-[4-[[4-(6-Amino-3-pyridyl)-1-methyl-pyrrolo[2,3-b]pyridin-2-yl]methyl]-3-oxo-piperazin-1-yl]-N,N-dimethyl-benzamide], for which the Kd was determined as 67.8 nM.
Turning to `CN(C)C(=O)c1ccc(C2CCN(Cc3cc4c(-c5ccc(N)nc5C(F)(F)F)ccnc4n3C)CC2)cc1` [Example 1k17, 4-[1-[[4-[6-Amino-2-(trifluoromethyl)-3-pyridyl]-1-methyl-pyrrolo[2,3-b]pyridin-2-yl]methyl]-4-piperidyl]-N,N-dimethyl-benzamide], the Kd was found to be 212 nM.
Take `CC(=O)Nc1ccc(-c2ccnc3c2cc(CN2CC[C@@H](c4ccc(C(=O)N(C)C)cc4)[C@H](C)C2=O)n3C)cc1` (single isomer, unassigned) [Example 1aa2]: the Kd came out at 203 nM.
In the case of `CN(C)C(=O)c1ccc(C2CCN(Cc3cc4c(-c5cnc(N)cc5C(F)F)ccnc4n3C)CC2)cc1` [Example 1k52, 4-[1-[[4-[6-Amino-4-(difluoromethyl)-3-pyridyl]-1-methyl-pyrrolo[2,3-b]pyridin-2-yl]methyl]-4-piperidyl]-N,N-dimethyl-benzamide], the Kd is 53.5 nM.
With `Cc1cc(-c2ccnc3c2cc(CN2CCC(c4ccc(C(=O)N(C)C)cc4)CC2)n3C)c(C)nc1N` [Example 1k31, 4-[1-[[4-(6-Amino-2,5-dimethyl-3-pyridyl)-1-methyl-pyrrolo[2,3-b]pyridin-2-yl]methyl]-4-piperidyl]-N,N-dimethyl-benzamide], the Kd came out at 78.5 nM.
As to `CN(C)C(=O)c1ccc(C2CCN(Cc3cc4c(-c5ccc(N)c(O)n5)ccnc4n3C)CC2)cc1` [Example 1ad1, 4-(1-((4-(5-Amino-6-hydroxypyridin-2-yl)-1-methyl-1H-pyrrolo[2,3-b]pyridin-2-yl)methyl)piperidin-4-yl)-N,N-dimethylbenzamide], the Kd was determined as 79.4 nM.
Regarding `Cc1cc(C(=O)N(C)C)ccc1C1=CCN([C@@H](C)c2cc3c(-c4ccc(N)cn4)ccnc3n2C)CC1` [Example 1af32, (S)-4-(1-(1-(4-(5-Aminopyridin-2-yl)-1-methyl-1H-pyrrolo[2,3-b]pyridin-2-yl)ethyl)-1,2,3,6-tetrahydropyridin-4-yl)-N,N,3-trimethylbenzamide], the Kd came out at 286 nM.
Consider `CN(C)C(=O)c1ccc(C2CCN(Cc3cc4c(-c5cnc(N)c(S(C)(=O)=O)c5)ccnc4n3C)CC2)cc1` [Example 1k25, 4-[1-[[4-(6-Amino-5-methylsulfonyl-3-pyridyl)-1-methyl-pyrrolo[2,3-b]pyridin-2-yl]methyl]-4-piperidyl]-N,N-dimethyl-benzamide], for which the Kd came to 6050 nM.
The value for `CN(C)C(=O)c1ccc(C2CCN(Cc3cc4c(-c5cnc(N)c(C#N)c5)ccnc4n3C)CC2)cc1` [Example 1k21, 4-[1-[[4-(6-Amino-5-cyano-3-pyridyl)-1-methyl-pyrrolo[2,3-b]pyridin-2-yl]methyl]-4-piperidyl]-N,N-dimethyl-benzamide] was 935 nM; that for `CCOC(=O)c1nc(N)ccc1-c1ccnc2c1cc(CN1CCC(c3ccc(C(=O)N(C)C)cc3)CC1)n2C` [Example 1k35, Ethyl 6-amino-3-[2-[[4-[4-(dimethylcarbamoyl)phenyl]-1-piperidyl]methyl]-1-methyl-pyrrolo[2,3-b]pyridin-4-yl]pyridine-2-carboxylate] was 11 nM.
The value for `CNC(=O)c1ccc(C2CCN(Cc3cc4c(-c5ccc(N)nc5C#N)ccnc4n3C)CC2)cc1` [Example 1ae14, 4-[1-[[4-(6-Amino-2-cyano-3-pyridyl)-1-methyl-pyrrolo[2,3-b]pyridin-2-yl]methyl]-4-piperidyl]-N-methyl-benzamide] was 194 nM.
The value for `[2H]C([2H])([2H])N(C(=O)c1ccc(C2CCN(Cc3cc4c(-c5cnc(N)cc5F)ccnc4n3C)CC2)cc1)C([2H])([2H])[2H]` [Example 1k16, 4-[1-[[4-(6-Amino-4-fluoro-3-pyridyl)-1-methyl-pyrrolo[2,3-b]pyridin-2-yl]methyl]-4-piperidyl]-N,N-bis(trideuteriomethyl)benzamide] was 22.6 nM.
For the molecule `COCCNc1ccc(-c2ccnc3c2cc(CN2CCC(c4ccc(C(=O)N(C)C)cc4)CC2)n3C)cn1` [Example 1k59, 4-[1-[[4-[6-(2-Methoxyethylamino)-3-pyridyl]-1-methyl-pyrrolo[2,3-b]pyridin-2-yl]methyl]-4-piperidyl]-N,N-dimethyl-benzamide], the Kd amounted to 57.3 nM.
In the case of `CNC(=O)c1ccc(-c2ccnc3c2cc(CN2CCN(c4ccc(C(=O)N(C)C)cc4)CC2)n3C)cc1` [Example 1j6, 4-[2-[[4-[4-(Dimethylcarbamoyl)phenyl]piperazin-1-yl]methyl]-1-methyl-pyrrolo[2,3-b]pyridin-4-yl]-N-methyl-benzamide], the Kd was found to be 37200 nM.
The value for `CN(C)C(=O)c1ccc(C2CCN(Cc3cc4c(-c5ccc(N)nc5)ccnc4n3C)CC2)cc1` [Example 1z19, 4-(1-((4-(6-aminopyridin-3-yl)-1-methyl-1H-pyrrolo[2,3-b]pyridin-2-yl)methyl)piperidin-4-yl)-N,N-dimethylbenzamide] was 22.3 nM; that for `CNc1ccc(-c2ccnc3c2cc(CN2CCN(c4ccc(C(=O)N(C)C)cn4)CC2)n3C)cn1` [Example 1n7, N,N-Dimethyl-6-[4-[[1-methyl-4-[6-(methylamino)-3-pyridyl]pyrrolo[2,3-b]pyridin-2-yl]methyl]piperazin-1-yl]pyridine-3-carboxamide] was 1040 nM.
The value for `C[C@@H]1C[C@@H](c2ccc(C(=O)N(C)C)cc2)CCN1Cc1cc2c(-c3ccc(N)cn3)ccnc2n1C` (single isomer, unassigned) [Example 1q7] was 5350 nM.
The value for `CNc1ccc(-c2ccnc3c2cc(CN2CC=C(c4ccc(C(=O)N(C)C)cn4)CC2)n3C)cn1` [Example 1s11, N,N-Dimethyl-6-[1-[[1-methyl-4-[6-(methylamino)-3-pyridyl]pyrrolo[2,3-b]pyridin-2-yl]methyl]-3,6-dihydro-2H-pyridin-4-yl]pyridine-3-carboxamide] was 133 nM; that for `CN(C)C(=O)c1ccc(C2CCN(Cc3cc4c(-c5ccc(NCC(=O)O)nc5)ccnc4n3C)CC2)cc1` [Example 1k63, 2-[[5-[2-[[4-[4-(Dimethylcarbamoyl)phenyl]-1-piperidyl]methyl]-1-methyl-pyrrolo[2,3-b]pyridin-4-yl]-2-pyridyl]amino]acetic acid] was 16.3 nM.
As for `C[C@H]1C[C@H](c2ccc(C(=O)N(C)C)cc2)CCN1Cc1cc2c(-c3ccc(N)nc3C#N)ccnc2n1C` (single isomer, unassigned) [Example 1q2], the Kd is 2560 nM.
`CN(C)C(=O)c1ccc(C2CCN(Cc3cc4c(-c5ccc(N)c(C#N)c5)ccnc4n3C)CC2)cc1` [Example 1k80, 4-(1-((4-(4-Amino-3-cyanophenyl)-1-methyl-1H-pyrrolo[2,3-b]pyridin-2-yl)methyl)piperidin-4-yl)-N,N-dimethylbenzamide]: the Kd was determined as 52.1 nM.
In the case of `CNc1cc(C)c(-c2ccnc3c2cc(CN2CCN(c4ccc(C(=O)N(C)C)cc4)CC2)n3C)cn1` [Example 1n8, N,N-Dimethyl-4-[4-[[1-methyl-4-[4-methyl-6-(methylamino)-3-pyridyl]pyrrolo[2,3-b]pyridin-2-yl]methyl]piperazin-1-yl]benzamide], the Kd was 2600 nM.
